Reference: patent US10912787B2, “Use of N-acetylglucosamine and derivatives thereof to treat muscle disorders” (PUREPHARM INC., priority 2017, dated 2021)
“Also recorded” adds a separate entry of the source. Values belong to the compound of their own block, whether it stands above or below them.

How the values were obtained:
C2C12 cells [1] = experiment: Myogenesis of murine myoblast C2C12 cells (MHC-positive multinucleated myotubes, immunofluorescence); format: cell-based; conditions: for myogenesis (GlcNAc vs glucosamine): C2C12, different doses, FIGS. 4A-4F; for number of multinuclear MHC expressing myotubes: C2C12, differentiation stopped after 72 hours
Description: (§1) N-Acetylglucosamine promotes myogenesis of murine myoblasts: Myogenesis of murine myoblast cells, C2C12 cells was induced by replacing the medium from growing medium (DMEM supplemented with 10% fetal calf serum) to DMEM supplemented with 1% horse serum, insulin (10 μg/ml), transferrin (5.5 μg/ml) and selenium (5 ng/ml) in the presence or absence of different doses of N-acetylglucosamine (GlcNAc). This condition induces the differentiation of myoblasts, including the induction of the synthesis of myosine heavy chains (MHC). Then myoblasts start fusing with each other to form myotubes, which are multinucleated. Cells were fixed in 3.8% paraformaldehyde containing phosphate buffered saline (PBS) for 15 min. Then cells were permeabilized by PBS-0.25% Triton X100 for 5 min. After washed with PBS, the cells were incubated with anti-MHC antibody (Clone MF-20, 2.5 μg/ml) in the blocking agents (Vectors laboratories) for an hour, followed by anti-mouse antibody labelled with Alex 488. Then nuclei of the cells were stained with DAPI. Fluorescent images were taken through 20× objectives by using Queorum WaveFX spinning Disc confocal system.
In the condition shown in FIG. 1, the myogenesis was stopped after the differentiation for 72 hours, which was 18 hours after the presence of myotubes became detectable. […] In FIGS. 2A and 2B, the differentiation was stopped at 62 hours. Fields of view (5×5 FOVs) are stitched together and shown here. One FOV is 0.533 mm square. White color is MHC-positive myotube cells.
as §1, with “Glucosamine is a commercially available supplement, which has been claimed to reduce arthritic pain, although there is any scientific evidence to support this claim. It was examined whether glucosamine has any significant effect on the myogenesis.” for “N-Acetylglucosamine promotes myogenesis of murine myoblasts:”, “(GlcNAc) or glucosamine.” for “(GlcNAc).”, “fusing” for “fusing with”, “PBS—0.25%” for “PBS-0.25%”

[2] = tested on: Myoblasts derived from a patient of DM1; experiment: Myogenesis of myoblasts derived from a patient of myotonic dystrophy 1; format: cell-based, human; conditions: after 120 hours of differentiation, FIG. 3
Description: It is known that myogenesis is impaired in myotonic dystrophy 1 (DM1). The therapeutic potential of GlcNAc on this impaired myogenesis was thus tested. Myoblasts derived from a patient of DM1 were grown in DMEM supplemented with 20% fetal calf serum till the density of cells reached to 90% confluency. Then, the differentiation was induced by changing the medium to DMEM supplemented with 1% fetal calf serum, 10 μg/ml insulin, and 100 μg/ml apotransferrin. After 120 hours, cells were fixed and MHC in the cells were visualized by the method described in Example 1.

C2C12 cells [3] = experiment: Statin-reduced myogenesis of C2C12 cells with or without Simvastatin; format: cell-based, murine; conditions: C2C12, 44 hours; for myoblast differentiation / myogenesis in the presence of Simvastatin: FIG. 5
Description: It is estimated that 10-15% of individuals who take statins-related compounds develop statin-related muscle adverse effects, ranging from mild myalgia to more severed muscle symptoms while the mechanism of statin-induced myopathy remains undetermined. In vitro myogenesis, statins-related compounds reduce in vitro myogenesis and stable adhesion of myotubes. Thus, it was examined whether GlcNAc treatment has any significant effect on the statin-reduced myogenesis. Myogenesis of murine myoblast cells, C2C12 cells was induced by replacing the medium from growing medium to differentiation medium as above DMEM in the presence or absence of different doses of N-acetylglucosamine (GlcNAc) with or without Simvastatin for 44 hours. Cells were then fixed in 3.8% paraformaldehyde containing phosphate buffered saline (PBS) for 15 min. Then cells were permeabilized by PBS-0.25% Triton X100 for 5 min. After washed with PBS, the cells were incubated with anti-MHC antibody (Clone MF-20, 2.5 μg/ml) in the blocking agents (Vectors laboratories) for an hour, followed by anti-mouse antibody labelled with Alex 488. Then nuclei of the cells were stained with DAPI. Fluorescent images were taken through 20× objectives by using Queorum WaveFX spinning Disc confocal system.

[4] = human, long-term oral administration; cited from earlier work
C2C12 cells [5] = experiment: Myogenesis of murine myoblast C2C12 cells (MHC-positive multinucleated myotubes, immunofluorescence); format: cell-based; conditions: FIG. 4

Structure (SMILES): CC(=O)N[C@H]1C(O)O[C@H](CO)[C@@H](O)[C@@H]1O (stereo partly drawn) [GlcNAc, N-acetylglucosamine]
myogenesis (GlcNAc vs glucosamine) (C2C12 cells [1]): Promotes the Myogenesis | myogenesis (GlcNAc vs glucosamine) (C2C12 cells [1]; listed as N-acetylglucosamine): increases the formation of myotubes | number of multinuclear MHC expressing myotubes (C2C12 cells [1]; FIG. 1): increases the number of multinuclear MHC expressing myotubes | number of multinuclear MHC expressing myotubes (C2C12 cells [1]; FIG. 1, listed as N-acetylglucosamine): increase of myogenesis of mouse myoblasts | number, length and width of myotubes (C2C12 cells [1]; C2C12, differentiation stopped at 62 hours, FIGS. 2A and 2B): increased not only the number of multinuclear MHC expressing myotubes but also the length and width of the myotubes | myogenesis of C2C12 cells (C2C12 cells [1]; dose of 0.2 mM, 72 hours, FIG. 1): promotes myogenesis of C2C12 cells | myogenesis of human myoblasts of DM1 [2]: promote the myogenesis of human myoblasts of DM1 | myogenesis of human myoblasts of DM1 ([2]; listed as N-acetylglucosamine): increase of the myogenesis of human myoblasts | myoblast differentiation / myogenesis in the presence of Simvastatin (C2C12 cells [3]): renders myoblast appropriate differentiation even in the presence of Simvastatin | myoblast differentiation / myogenesis in the presence of Simvastatin (C2C12 cells [3]; listed as N-acetylglucosamine): restores the myogenesis that is partially impaired by statin | adhesion of myotubes (C2C12 cells [3]; with Simvastatin, preliminary data not shown): stabilizes the adhesion of myotubes | adverse effect [4]: not to have any significant adverse effect

formation of myotube in the presence of Simvastatin alone (C2C12 cells [3]): the formation of myotube was reduced
Structure (SMILES): CCC(C)(C)C(=O)O[C@H]1C[C@@H](C)C=C2C=C[C@H](C)[C@H](CC[C@@H]3C[C@@H](O)CC(=O)O3)[C@H]21 [Simvastatin, reference compound]

Structure (SMILES): N[C@H]1C(O)O[C@H](CO)[C@@H](O)[C@@H]1O (stereo partly drawn) [glucosamine]
myogenesis (GlcNAc vs glucosamine) (C2C12 cells [1]): fails to promote the myogenesis; also recorded: inhibition of myogenesis; also recorded: fails to induce any positive impact on the myogenesis | cell toxicity (C2C12 cells [5]): showed toxicity to the myotubes; also recorded: induce cell toxicity
